Marks after values point to notes of the source that are not given here.
Legend:
[1] = Pharmacokinetics in plasma following single dose and repeated doses of Compound A 1.5 succinate; format: in vivo, human; conditions: for AUC(0-t) / Cavg / Cmax / Cmin / tmax / tmax, median (minimum − maximum) / AUC(0-inf) / CL/F / t1/2: Compound A
Description: In order to evaluate the PK when administered as a single dose, a single dose of Compound A for each treatment group (at the corresponding dosage for that group) was administered on Day 1. Compound A was administered when fasted, immediately after waking up with at least 10 hours fasting. Taking any meal was prohibited for 2 hours after administration and only drinking water was allowed.
Cycle 1 was started between 8 and 10 days after dosing in Cycle 0 and Compound A was administered continuously once daily. Compound A was administered at least 2 hours after breakfast, and any food intake was prohibited for 1 hour after administration. However, on Day 8 of Cycle 1, Compound A was administered immediately after waking up while the subject was fasted after at least 10 hours of overnight fasting in order to evaluate the PK. Taking any meals was prohibited for 2 hours after administration and only drinking water was allowed.
Plasma concentration profile of Compound A following a single dose and repeated doses of Compound A 1.5 succinate are shown in FIG. 1 and FIG. 2, respectively. The profile shown in FIG. 2 is that at steady state.
The pharmacokinetic parameters of Compound A following the single dose and repeated doses of Compound A 1.5 succinate are shown in the following table. The pharmacokinetic parameters of Compound A following repeated doses of Compound A 1.5 succinate shown below are those at steady state.
The pharmacokinetic parameters of Compound A following the single dose and repeated doses of Compound A 1.5 succinate updated after obtaining the above data are shown in the following table. The pharmacokinetic parameters of Compound A following repeated doses of Compound A 1.5 succinate shown below are those at steady state.
The pharmacokinetic parameters of Compound B following the single dose and repeated doses of Compound A 1.5 succinate are shown in the following table. The pharmacokinetic parameters of Compound B following repeated doses of Compound A 1.5 succinate shown below are those at steady state.

[2] = system: FGFR2 gene amplified diffused type gastric cancer; test: Anti-tumor activity, tumor size on CT images, patient; format: in vivo, human; conditions: 180 mg once daily, one patient, Day 1 of Cycle 3 vs before administration
Description: Compound A was administered once daily at 180 mg to a patient with FGFR2 gene amplified diffused type gastric cancer (poorly differentiated adenocarcinoma). The left image is that before the administration and the right image is that on Day 1 of Cycle 3.

[3] = system: FGFR2-fusion gene positive intrahepatic cholangiocarcinoma; test: Anti-tumor activity, tumor size, patient; format: in vivo, human; conditions: 30 mg once daily, one patient, FGFR2-fusion gene positive (78%)
Description: When Compound A was administered once daily at 30 mg to a patient with FGFR2-fusion gene positive (78%) intrahepatic cholangiocarcinoma, the tumor size reduced by about 9%.

[4] = system: fibroblast growth factor receptors (FGFRs) 1, 2 and 3; conditions: reported in PTL 1; cited from earlier work
[5] = system: stomach cancer, lung cancer, bladder cancer, endometrial cancer, bile duct cancer, breast cancer; conditions: endometrial cancer (PTL 1), bile duct cancer (PTL 2), breast cancer (PTL 3); cited from earlier work
[6] = repeated once-daily doses 30 mg, steady state (n = 2), Table 4
[7] = repeated once-daily doses 30 mg, steady state (n = 2), Table 5 (updated)
[8] = repeated once-daily doses 60 mg, steady state (n = 2), Table 4
[9] = repeated once-daily doses 60 mg, steady state (n = 2), Table 5 (updated)
[10] = repeated once-daily doses 100 mg, steady state (n = 3), Table 4
[11] = repeated once-daily doses 100 mg, steady state (n = 3), Table 5 (updated)
[12] = repeated once-daily doses 140 mg, steady state (n = 3), Table 4
[13] = repeated once-daily doses 140 mg, steady state (n = 3), Table 5 (updated)
[14] = repeated once-daily doses 180 mg, steady state (n = 3), Table 4
[15] = repeated once-daily doses 180 mg, steady state (n = 3), Table 5 (updated)
[16] = single dose 30 mg (n = 2), Table 4
[17] = single dose 30 mg (n = 2), Table 5 (updated)
[18] = single dose 60 mg (n = 3), Table 4
[19] = single dose 60 mg (n = 3), Table 5 (updated)
[20] = single dose 100 mg (n = 3), Table 4
[21] = single dose 100 mg (n = 3), Table 5 (updated)
[22] = single dose 140 mg (n = 3), Table 4
[23] = single dose 140 mg (n = 3), Table 5 (updated)
[24] = single dose 180 mg (n = 3), Table 4
[25] = single dose 180 mg (n = 3), Table 5 (updated)

Structure (SMILES): CNC(=O)n1ccc2cc(Oc3ccnc(NC(=O)c4ccc(C5CCN(CCO)CC5)cc4)c3)c(OCCOC)cc21 [Compound A, 5-((2-(4-(1-(2-hydroxyethyl)piperidin-4-yl)benzamide)pyridin-4-yl)oxy)-6-(2-methoxyethoxy)-N-methyl-1H-indole-1-carboxamide]
- metabolism in human subjects ([1]; Compound A administered to human subjects): metabolized in the body to produce Compound B
- AUC(0-t) [1, 6]: 158 ng·h/mL
- Cavg [1, 6]: 6.58 ng/mL
- Cmax [1, 6]: 13.3 ng/mL
- Cmin [1, 6]: 2.48 ng/mL
- tmax [1, 6]: 4 (3-5) h
- AUC(0-t) [1, 7]: 162 ng·h/mL
- Cavg [1, 7]: 6.75 ng/mL
- Cmax [1, 7]: 13.3 ng/mL
- Cmin [1, 7]: 4.50 ng/mL
- tmax, median (minimum − maximum) [1, 7]: 3.99 (3.00-4.97) h
- AUC(0-t) [1, 8]: 499^a^ h · ng/mL
- Cavg [1, 8]: 20.8^a ng/mL
- Cmax [1, 8]: 50.5^a ng/mL
- Cmin [1, 8]: 8.28^a ng/mL
- tmax [1, 8]: 2.5 (2-3)^a h
- AUC(0-t) [1, 9]: 507^a^ h · ng/mL
- Cavg [1, 9]: 21.1^a ng/mL
- Cmax [1, 9]: 50.5^a ng/mL
- Cmin [1, 9]: 11.0^a ng/mL
- tmax, median (minimum − maximum) [1, 9]: 2.54 (2.07-3.00) ^a h
- AUC(0-t) [1, 10]: 1330 ± 417 ng·h/mL
- Cavg [1, 10]: 55.2 ± 17.3 ng/mL
- Cmax [1, 10]: 116 ± 3.79 ng/mL
- Cmin [1, 10]: 18.7 ± 7.95 ng/mL
- tmax [1, 10]: 3 (2-5) h
- AUC(0-t) [1, 11]: 1340 ± 437 ng·h/mL
- Cavg [1, 11]: 55.91 ± 8.2 ng/mL
- Cmax [1, 11]: 116 ± 3.79 ng/mL
- Cmin [1, 11]: 22.3 ± 8.48 ng/mL
- tmax, median (minimum − maximum) [1, 11]: 2.97 (2.03-5.00) h
- AUC(0-t) [1, 12]: 4700 ± 3380 ng·h/mL
- Cavg [1, 12]: 196 ± 141 ng/mL
- Cmax [1, 12]: 372 ± 173 ng/mL
- Cmin [1, 12]: 101 ± 94.5 ng/mL
- tmax [1, 12]: 5 (3-5) h
- AUC(0-t) [1, 13]: 4700 ± 3380 ng·h/mL
- Cavg [1, 13]: 196 ± 141 ng/mL
- Cmax [1, 13]: 372 ± 173 ng/mL
- Cmin [1, 13]: 117 ± 116 ng/mL
- tmax, median (minimum − maximum) [1, 13]: 5.00 (2.98-5.08) h
- AUC(0-t) [1, 14]: 3850 ± 777 ng·h/mL
- Cavg [1, 14]: 161 ± 32.3 ng/mL
- Cmax [1, 14]: 337 ± 60.3 ng/mL
- Cmin [1, 14]: 61.4 ± 19.9 ng/mL
- tmax [1, 14]: 5 (3-5) h
- AUC(0-t) [1, 15]: 3860 ± 764 ng·h/mL
- Cavg [1, 15]: 161 ± 32.3 ng/mL
- Cmax [1, 15]: 337 ± 60.3 ng/mL
- Cmin [1, 15]: 64.8 ± 19.4 ng/mL
- tmax, median (minimum − maximum) [1, 15]: 5.00 (3.05-5.08) h
- AUC(0-inf) [1, 16]: 236 ng·h/mL
- AUC(0-t) [1, 16]: 220 ng·h/mL
- CL/F [1, 16]: 128 L/h
- Cmax [1, 16]: 28.1 ng/mL
- t1/2 [1, 16]: 22.8 h
- tmax [1, 16]: 3 (1-5) h
- AUC(0-inf) [1, 17]: 239 ng·h/mL
- AUC(0-t) [1, 17]: 222 ng·h/mL
- CL/F [1, 17]: 127 L/h
- Cmax [1, 17]: 28.1 ng/mL
- t1/2 [1, 17]: 22.7 h
- tmax, median (minimum − maximum) [1, 17]: 3.04 (0.93-5.15) h
- AUC(0-inf) [1, 18]: 551 ± 240 ng·h/mL
- AUC(0-t) [1, 18]: 529 ± 250 ng·h/mL
- CL/F [1, 18]: 122 ± 42.5 L/h
- Cmax [1, 18]: 38.7 ± 4.69 ng/mL
- t1/2 [1, 18]: 23.1 ± 7.65 h
- tmax [1, 18]: 3 (3-5) h
- AUC(0-inf) [1, 19]: 554 ± 247 ng·h/mL
- AUC(0-t) [1, 19]: 533 ± 257 ng·h/mL
- CL/F [1, 19]: 121 ± 43.1 L/h
- Cmax [1, 19]: 38.7 ± 4.69 ng/mL
- t1/2 [1, 19]: 23.1 ± 7.63 h
- tmax, median (minimum − maximum) [1, 19]: 3.00 (2.97-4.98)^ h
- AUC(0-inf) [1, 20]: 1120 ± 488 ng·h/mL
- AUC(0-t) [1, 20]: 1090 ± 483 ng·h/mL
- CL/F [1, 20]: 103 ± 48.9 L/h
- Cmax [1, 20]: 85.9 ± 30.8 ng/mL
- t1/2 [1, 20]: 15.1 ± 1.77 h
- tmax [1, 20]: 5 (3-5) h
- AUC(0-inf) [1, 21]: 1120 ± 479 ng·h/mL
- AUC(0-t) [1, 21]: 1080 ± 474 ng·h/mL
- CL/F [1, 21]: 103 ± 48.2 L/h
- Cmax [1, 21]: 85.9 ± 30.8 ng/mL
- t1/2 [1, 21]: 15.2 ± 1.84 h
- tmax, median (minimum − maximum) [1, 21]: 4.95 (2.97-5.10) h
- AUC(0-inf) [1, 22]: 4000 ± 3340 ng·h/mL
- AUC(0-t) [1, 22]: 3900 ± 3230 ng·h/mL
- CL/F [1, 22]: 60.4 ± 51.6 L/h
- Cmax [1, 22]: 227 ± 118.0 ng/mL
- t1/2 [1, 22]: 26.4 ± 12.2 h
- tmax [1, 22]: 5 (3-5) h
- AUC(0-inf) [1, 23]: 4050 ± 3340 ng·h/mL
- AUC(0-t) [1, 23]: 3960 ± 3230 ng·h/mL
- CL/F [1, 23]: 59.0 ± 50.2 L/h
- Cmax [1, 23]: 227 ± 118 ng/mL
- t1/2 [1, 23]: 26.4 ± 12.4 h
- tmax, median (minimum − maximum) [1, 23]: 4.88 (3.00-5.08) h
- AUC(0-inf) [1, 24]: 2570 ± 907 ng·h/mL
- AUC(0-t) [1, 24]: 2540 ± 924 ng·h/mL
- CL/F [1, 24]: 75.0 ± 22.0 L/h
- Cmax [1, 24]: 154 ± 38.4 ng/mL
- t1/2 [1, 24]: 23.6 ± 10.2 h
- tmax [1, 24]: 2 (2-5) h
- AUC(0-inf) [1, 25]: 2610 ± 921 ng·h/mL
- AUC(0-t) [1, 25]: 2570 ± 933 ng·h/mL
- CL/F [1, 25]: 74.2 ± 21.8 L/h
- Cmax [1, 25]: 154 ± 38.4 ng/mL
- t1/2 [1, 25]: 23.7 ± 10.4 h
- tmax, median (minimum − maximum) [1, 25]: 2.12 (1.95-5.00) h
- tumor size [2]: reduced significantly
- tumor size reduction [3]: about 9%
- inhibitory activity on FGFRs 1, 2 and 3 [4]: has an inhibitory activity
- cell growth suppressing activity [5]: has a cell growth suppressing activity

Source: patent US20200297711A1, “PHARMACEUTICAL COMPOSITION COMPRISING FGFR SELECTIVE TYROSINE KINASE INHIBITOR” (priority 2017, published 2020)
